One series relates to mouse vas deferens. As to the kind of experiment: Electrically‐evoked contraction of the mouse vas deferens. The format is cell-based. To be noted: Mus musculus, read-out: EC50, inhibition of electrically‐evoked contraction.
A further series deals with GPR55‐deficient ABH mice. As to the kind of experiment: Spasticity in GPR55‐deficient mice. The format is in vivo, mouse. As to conditions: 10 mg·kg^−1 i.v.
Another series has as its system rats. As to the kind of experiment: Irwin test. The class given is in vivo, rat.
In the next series the test system is rabbits. Put plainly: Reproductive toxicology in rabbits. The format is in vivo, rabbit. Here is the method: Twenty‐eight day toxicology in rats and dogs for Investigational New Drug filing was performed by Charles Rivers (UK). Reproductive toxicology in rabbits was performed by Charles Rivers (Canada). Pharmacokinetic and/or toxicological doses ranged from 5 to 1000 mg·kg^−1 p.o. in Sprague Dawley male and female rats (n = 6‐26 per group), 50–200 mg·kg^−1 p.o. in male and female Beagle dogs (n = 6 per group) and 100–750 mg·kg^−1 p.o. in female New Zealand white rabbits (n = 9 per group). Results are expressed as mean ± SD.

A further series concerns the target BKCa channel (Homo sapiens, UniProt Q12791). As to the kind of experiment: Single‐channel inside‐out patch clamp, HCN‐2 neural cells. The class given is cell-based. As to conditions: inside‐out patches. As for the experimental part:
The human EA.hy926 endothelial cells (ATCC, Manassas, USA) were grown in DMEM containing 10% FCS and 1% HAT (5 mM hypoxanthine, 20 μM aminopterin and 0.8 mM thymidine) and were maintained in an incubator at 37°C in 5% CO2 atmosphere (Bondarenko et al., 2013). Human HNC‐2 neuronal cells were obtained from ATCC. For experiments, cells were plated on glass coverslips. Single‐channel recordings were obtained from excised inside‐out membrane patches in symmetrical solutions using the patch‐clamp technique. All patch‐clamp experiments were performed at room temperature with the use of a water hydraulic micromanipulator (WR‐6, Narishige, Japan). […] The pipettes were filled with 140 mM KCl, 10 mM HEPES, 1 mM MgCl2, 5 mM EGTA and […] CaCl2 buffered to pH 7.2 by adding KOH. Cells were super‐perfused with a bath solution containing 140 mM NaCl, 5 mM KCl, 1.2 mM MgCl2, 10 mM HEPES, 10 mM glucose and 2.4 mM CaCl2. […] Single‐channel activity was expressed as NPo, where N represents the number of functional ion channels in the membrane patch and Po represents the open channel probability determined from idealized traces (Bondarenko et al., 2011). […] Data were analysed by ANOVA, and statistical significance was evaluated using Scheffés post hoc test of the Prism 5 software for Windows (GraphPad Software).

Series [1] deals with primary porcine aorta endothelium. Put plainly: Patch clamp of primary pig aorta endothelium. The class given is cell-based.
For series [2], the system named is spastic ABH mice with EAE. As to the kind of experiment: Hoffman (H) reflex electrophysiology in spastic animals. The format is in vivo, mouse. To be noted: 30mg/kg i.v.
For series [3], the target named is T1, hCB2 Receptor (HEK293T.CNR2) (Homo sapiens, UniProt P34972).
T1 construct: expressed in transfected cells; host or cells: HEK293T
Put plainly: cAMP assay, HEK293T.CNR2. As to conditions: max. tested 10μM. The format is cell-based.

The next series concerns the target T2, CYP450 2D6 (Homo sapiens, UniProt P10635).
T2 construct: from tissue; host or cells: liver microsomes
Put plainly: CYP450 inhibition of dextromethorphan substrate in liver microsomes. The class given is in vitro ADME. To be noted: read-out: IC50 Inhibition of substrate binding, VSN16R.

A further series deals with T3, CYP450 2E1 (Homo sapiens, UniProt P05181).
T3 construct: host or cells: BTI NN-5B1-4 or Sf9 insect cells
Put plainly: CYP450 inhibition of substrate binding. The class given is in vitro ADME. To be noted: read-out: IC50 Inhibition of substrate binding, VSN16R.

Another series addresses T4, A1 (Homo sapiens, UniProt P30542).
T4 construct: purchased Cerep; Chantest; DiscoveRx; Multispan; MDS Pharma Services
As to the kind of experiment: Receptor binding profile of VSN16R. To be noted: 10µM VSN16R.

The next series deals with T5, CCKA (Homo sapiens, UniProt P32238).
T5 construct: purchased Cerep; Chantest; DiscoveRx; Multispan; MDS Pharma Services
As to the kind of experiment: Receptor binding profile of VSN16R. As to conditions: 10µM VSN16R.

The next series deals with T6, μ (Homo sapiens, UniProt P35372).
T6 construct: purchased Cerep; Chantest; DiscoveRx; Multispan; MDS Pharma Services
As to the kind of experiment: Receptor binding profile of VSN16R. As to conditions: 10µM VSN16R.

The target in another series is T7, 5-HT2A (Homo sapiens, UniProt P28223).
T7 construct: purchased Cerep; Chantest; DiscoveRx; Multispan; MDS Pharma Services
As to the kind of experiment: Receptor binding profile of VSN16R. As to conditions: 10µM VSN16R.

The target of series [4] is T8, fatty acid amide hydrolase (Homo sapiens, UniProt O00519).
T8 construct: purchased Cerep; Chantest; DiscoveRx; Multispan; MDS Pharma Services
Put plainly: Receptor binding profile of VSN16R. As to conditions: 10µM VSN16R.

In another series the target is T9, GPR55 (Homo sapiens, UniProt Q9Y2T6).
T9 construct: purchased Cerep; Chantest; DiscoveRx; Multispan; MDS Pharma Services
Put plainly: Receptor binding profile of VSN16R.

A further series deals with T10, EDG3 (Homo sapiens, UniProt Q99500).
T10 construct: purchased Cerep; Chantest; DiscoveRx; Multispan; MDS Pharma Services
As to the kind of experiment: Receptor binding profile of VSN16R. To be noted: 10µM VSN16R.

The next series concerns Na+-Ca2+ exchanger. Put plainly: Receptor binding profile of VSN16R. Details: species or system human. As to conditions: 10µM VSN16R.
The next series deals with CYP450 2A6 (Homo sapiens, UniProt P11509). As to the kind of experiment: CYP450 inhibition of substrate binding.

The structures appear in SMILES notation. Entries after “also recorded” stand apart in the source; their conditions may differ.

T9 sequence (Q9Y2T6 whole entry): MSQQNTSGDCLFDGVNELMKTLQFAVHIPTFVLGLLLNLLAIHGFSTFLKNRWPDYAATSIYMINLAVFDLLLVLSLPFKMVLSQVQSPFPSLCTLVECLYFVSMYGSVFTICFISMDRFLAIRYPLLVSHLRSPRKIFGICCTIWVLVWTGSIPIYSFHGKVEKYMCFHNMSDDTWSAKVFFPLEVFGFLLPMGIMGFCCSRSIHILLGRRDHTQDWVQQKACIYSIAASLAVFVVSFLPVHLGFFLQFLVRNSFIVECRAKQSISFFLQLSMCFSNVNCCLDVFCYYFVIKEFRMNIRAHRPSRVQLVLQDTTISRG
T5 sequence (P32238 whole entry): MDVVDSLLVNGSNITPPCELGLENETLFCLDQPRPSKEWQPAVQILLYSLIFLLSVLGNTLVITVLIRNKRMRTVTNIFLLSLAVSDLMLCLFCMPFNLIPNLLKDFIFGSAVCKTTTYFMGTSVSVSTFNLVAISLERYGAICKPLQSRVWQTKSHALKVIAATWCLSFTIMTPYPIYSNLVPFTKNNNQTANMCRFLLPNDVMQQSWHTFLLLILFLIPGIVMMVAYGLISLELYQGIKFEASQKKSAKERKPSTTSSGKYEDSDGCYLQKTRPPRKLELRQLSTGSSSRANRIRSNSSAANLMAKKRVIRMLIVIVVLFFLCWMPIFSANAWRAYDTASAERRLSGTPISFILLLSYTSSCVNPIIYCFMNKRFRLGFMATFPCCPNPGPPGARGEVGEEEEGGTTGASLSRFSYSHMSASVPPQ
T10 sequence (Q99500 whole entry): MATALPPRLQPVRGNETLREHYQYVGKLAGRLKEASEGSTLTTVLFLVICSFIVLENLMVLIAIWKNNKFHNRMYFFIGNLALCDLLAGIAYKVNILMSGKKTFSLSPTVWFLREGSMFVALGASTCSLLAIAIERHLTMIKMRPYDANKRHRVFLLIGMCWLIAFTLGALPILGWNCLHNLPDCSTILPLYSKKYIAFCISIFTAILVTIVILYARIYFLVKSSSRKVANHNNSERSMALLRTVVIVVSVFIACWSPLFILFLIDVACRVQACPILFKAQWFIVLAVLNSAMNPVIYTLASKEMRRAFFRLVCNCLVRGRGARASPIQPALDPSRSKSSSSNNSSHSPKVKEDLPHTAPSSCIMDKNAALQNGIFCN
Chain of BKCa channel (Q12791 whole entry): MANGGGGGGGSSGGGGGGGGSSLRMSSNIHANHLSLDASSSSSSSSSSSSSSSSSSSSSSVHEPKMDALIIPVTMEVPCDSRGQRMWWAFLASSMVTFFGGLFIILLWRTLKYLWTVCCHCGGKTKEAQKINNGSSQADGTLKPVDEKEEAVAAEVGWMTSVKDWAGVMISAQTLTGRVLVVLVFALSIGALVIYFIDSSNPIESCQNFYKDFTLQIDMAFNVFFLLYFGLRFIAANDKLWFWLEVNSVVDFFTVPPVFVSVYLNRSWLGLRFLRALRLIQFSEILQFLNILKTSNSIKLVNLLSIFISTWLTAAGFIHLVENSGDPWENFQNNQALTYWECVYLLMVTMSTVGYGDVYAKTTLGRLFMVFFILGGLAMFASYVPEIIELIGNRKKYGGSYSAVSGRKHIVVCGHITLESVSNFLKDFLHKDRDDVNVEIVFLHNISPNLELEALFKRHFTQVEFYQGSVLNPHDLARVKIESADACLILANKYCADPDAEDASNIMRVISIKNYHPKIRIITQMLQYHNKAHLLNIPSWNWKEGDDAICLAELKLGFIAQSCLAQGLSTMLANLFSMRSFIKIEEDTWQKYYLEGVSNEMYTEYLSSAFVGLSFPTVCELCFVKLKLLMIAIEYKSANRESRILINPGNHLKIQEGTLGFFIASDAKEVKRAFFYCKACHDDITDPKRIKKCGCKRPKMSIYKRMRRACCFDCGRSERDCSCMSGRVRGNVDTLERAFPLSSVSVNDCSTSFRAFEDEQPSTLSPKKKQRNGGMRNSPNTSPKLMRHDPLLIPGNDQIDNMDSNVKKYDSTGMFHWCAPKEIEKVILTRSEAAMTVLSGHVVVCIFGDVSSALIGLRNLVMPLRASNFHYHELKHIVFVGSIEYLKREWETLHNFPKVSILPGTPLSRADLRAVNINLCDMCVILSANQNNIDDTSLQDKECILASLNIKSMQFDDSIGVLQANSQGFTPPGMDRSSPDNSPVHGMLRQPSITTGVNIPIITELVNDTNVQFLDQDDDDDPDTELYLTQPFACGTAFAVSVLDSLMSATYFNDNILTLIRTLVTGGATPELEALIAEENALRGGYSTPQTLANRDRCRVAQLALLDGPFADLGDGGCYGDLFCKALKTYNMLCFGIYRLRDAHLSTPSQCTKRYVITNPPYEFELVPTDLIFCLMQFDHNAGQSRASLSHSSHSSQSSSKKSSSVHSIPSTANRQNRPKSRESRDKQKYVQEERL
Chain of CYP450 2A6 (P11509 whole entry): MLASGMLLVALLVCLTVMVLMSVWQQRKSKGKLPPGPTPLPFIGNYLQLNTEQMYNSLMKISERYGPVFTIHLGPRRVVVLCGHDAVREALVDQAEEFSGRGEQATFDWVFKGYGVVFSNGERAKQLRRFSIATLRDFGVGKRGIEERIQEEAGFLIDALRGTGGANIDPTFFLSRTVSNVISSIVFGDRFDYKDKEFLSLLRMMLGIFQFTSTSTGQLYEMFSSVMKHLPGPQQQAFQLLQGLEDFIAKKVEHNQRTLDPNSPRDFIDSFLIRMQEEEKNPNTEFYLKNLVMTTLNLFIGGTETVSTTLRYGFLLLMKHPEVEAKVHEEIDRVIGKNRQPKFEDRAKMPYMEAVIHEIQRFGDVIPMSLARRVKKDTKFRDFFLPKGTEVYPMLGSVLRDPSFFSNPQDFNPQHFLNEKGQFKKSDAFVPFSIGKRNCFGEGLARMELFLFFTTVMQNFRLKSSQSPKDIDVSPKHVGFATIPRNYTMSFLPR
T1 sequence (P34972 whole entry): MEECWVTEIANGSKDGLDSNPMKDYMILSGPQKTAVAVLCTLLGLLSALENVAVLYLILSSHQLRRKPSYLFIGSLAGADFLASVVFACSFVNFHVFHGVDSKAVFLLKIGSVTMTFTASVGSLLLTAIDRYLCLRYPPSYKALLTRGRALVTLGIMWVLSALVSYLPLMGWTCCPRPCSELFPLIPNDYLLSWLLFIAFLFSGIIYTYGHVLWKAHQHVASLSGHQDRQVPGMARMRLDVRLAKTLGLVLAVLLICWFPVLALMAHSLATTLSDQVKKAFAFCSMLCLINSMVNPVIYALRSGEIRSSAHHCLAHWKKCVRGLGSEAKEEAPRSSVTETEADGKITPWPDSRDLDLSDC
T3 sequence (P05181 whole entry): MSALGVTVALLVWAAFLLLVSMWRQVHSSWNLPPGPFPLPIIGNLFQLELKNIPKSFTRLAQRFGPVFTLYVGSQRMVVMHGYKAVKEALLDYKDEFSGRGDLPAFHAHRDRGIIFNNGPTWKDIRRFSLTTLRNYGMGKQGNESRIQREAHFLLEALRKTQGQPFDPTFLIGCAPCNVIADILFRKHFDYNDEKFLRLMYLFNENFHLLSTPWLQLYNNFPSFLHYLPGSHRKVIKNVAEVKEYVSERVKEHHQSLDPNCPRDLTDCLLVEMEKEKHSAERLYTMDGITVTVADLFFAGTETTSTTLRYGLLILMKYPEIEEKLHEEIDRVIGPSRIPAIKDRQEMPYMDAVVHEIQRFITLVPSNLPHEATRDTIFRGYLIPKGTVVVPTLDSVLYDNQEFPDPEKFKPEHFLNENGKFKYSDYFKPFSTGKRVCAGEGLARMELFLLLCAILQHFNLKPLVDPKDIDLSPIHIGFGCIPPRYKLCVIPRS
T4 sequence (P30542 whole entry): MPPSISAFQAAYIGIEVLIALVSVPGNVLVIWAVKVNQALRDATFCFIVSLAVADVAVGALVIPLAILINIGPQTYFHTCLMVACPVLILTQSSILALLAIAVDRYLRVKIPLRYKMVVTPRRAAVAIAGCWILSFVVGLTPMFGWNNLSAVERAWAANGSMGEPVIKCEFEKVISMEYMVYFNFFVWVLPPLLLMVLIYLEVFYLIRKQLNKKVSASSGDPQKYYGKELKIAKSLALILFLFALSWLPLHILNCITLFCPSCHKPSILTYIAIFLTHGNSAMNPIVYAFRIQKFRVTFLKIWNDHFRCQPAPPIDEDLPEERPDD
T8 sequence (O00519 whole entry): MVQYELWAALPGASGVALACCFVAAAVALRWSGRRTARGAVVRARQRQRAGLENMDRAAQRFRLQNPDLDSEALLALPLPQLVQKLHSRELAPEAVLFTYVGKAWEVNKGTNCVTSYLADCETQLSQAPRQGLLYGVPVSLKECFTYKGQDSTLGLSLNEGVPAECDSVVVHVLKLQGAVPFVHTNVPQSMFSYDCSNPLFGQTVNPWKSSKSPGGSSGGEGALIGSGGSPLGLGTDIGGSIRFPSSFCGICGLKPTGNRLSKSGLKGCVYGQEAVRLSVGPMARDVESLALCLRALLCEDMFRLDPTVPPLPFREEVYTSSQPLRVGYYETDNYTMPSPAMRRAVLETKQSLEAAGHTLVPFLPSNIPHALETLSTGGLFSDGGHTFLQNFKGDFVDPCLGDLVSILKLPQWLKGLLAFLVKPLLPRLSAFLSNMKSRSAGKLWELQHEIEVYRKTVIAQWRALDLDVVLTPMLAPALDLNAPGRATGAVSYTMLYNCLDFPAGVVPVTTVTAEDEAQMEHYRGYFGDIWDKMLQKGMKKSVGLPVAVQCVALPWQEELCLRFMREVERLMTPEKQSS
Excerpt for CYP450 2A6: (§1) Inhibition of binding of either 3-cyano-7-ethoxycoumarin, dibenzylfluorescein or 7-benzyoxy-4-
(§2) (trifluoromethyl) coumarin in human enzyme transfected BTI NN-5B1-4 cells or Sf9 insect cells or
(§3) inhibition of dextromethorphan substrate to CYP450 2D6 in liver microsomes.
Excerpt for CYP450 2D6: as §1, §2, §3
Excerpt for CYP450 2E1: as §1, §2, §3

`C[C@H](CO)NC(=O)c1cccc(/C=C\CCCC(=O)N(C)C)c1` [VSN16R]: the EC50 in the series on mouse vas deferens is 0.01 µM. Further, the Inhibition of spasticity result in the series with GPR55‐deficient ABH mice is given as “continued to inhibit spasticity”. Besides, the “Irwin test: Autonomic profile” value with rats (120mg/kg p.o. in water) is on record as “Unchanged”. Besides, the “Irwin test: Behavioural Profile” value with rats (120mg/kg p.o. in water) is recorded as “Unchanged”. For the same compound, in the series on rats (120mg/kg p.o. in water), the “Irwin test: Neurological profile” value is listed as “Unchanged”. The “Adverse behavioural responses in Irwin tests” value in the series with rats (120 mg·kg^−1 p.o.) is reported as “did not display any adverse behavioural responses”. Moreover, the “Reproductive toxicology safe level” value with rabbits is given as greater than 500 mg·kg^−1. On BKCa channel, the “Single BKCa channel activity” value is given as “stimulated single BKCa channel activity”. Further, the “Effect on primary porcine aorta endothelium” value in series [1] is “do not respond; also recorded: had no effects”. In series [2], the “Animals with H reflex inhibited” value was 3/5. Also, the “Activity of VSN16R (Max. Tested)” value in series [3] is recorded as “No Activity”. In addition, the IC50 on CYP450 2D6 was greater than 30 µM; at CYP450 2E1, greater than 10 µM; at CYP450 2A6, greater than 10 µM. For the same compound, the Activity entry (at A1; on CCKA; on μ; on 5-HT2A; in [4]; on GPR55 (10µM VSN16R)) was “Negligible Activity” throughout. Further, the Activity entry at EDG3 and in the series on Na+-Ca2+ exchanger was “Negligible Activity” throughout. Also, at GPR55 (Multispan C1113, H113, HEK293T.GPR55 and mouse DBT.Gpr55 cell lines), the “Binding to GPR55” value is “does not directly bind”.

Source of the values: article PMC5522996, “Big conductance calcium‐activated potassium channel openers control spasticity without sedation” (British Journal of Pharmacology, 2017).
